Read-outs that look alike come from different tables or passages of the source. Marks after values point to notes of the source that are not given here.
How the values were obtained:
atopic dermatitis [1] = settings: 16 weeks, 224 subjects, cited from earlier work
[2] = Distribution of norketotifen to the lungs after oral administration; format: in vivo; settings: lung / plasma, read-out: Lung concentration relative to plasma concentration
From the text: Norketotifen, after oral administration, is rapidly absorbed and is also preferentially distributed to the lungs, where the concentration of RS-norketotifen can reach concentrations that may be 100 times higher than the plasma concentration.

[3] = dog, in vivo
Method: In the Phase 2 study described herein, doses of 4 mg (maintenance) and 8 mg (loading) were used, with very good effects and with no toxicity. The margin of safety (MOS) was calculated by dividing animal: human doses in mg/kg, or dividing animal systemic exposure (AUC) at no adverse effect level (NOAEL) (a 28-day dog study), with human systemic exposure AUC (from human Phase 1 study), or by dividing animal: to human dose expressed in m2 (body surface area—BSA), or by calculating HED (human equivalent dose).

[4] = Fed and fasted oral administration of norketotifen to dogs (food effect PK); format: in vivo; settings: 4 mg/kg oral; for AUC(0-inf) / Cmax: dog, plasma, po, 4 mg/kg
Method: Norketotifen was administered to dogs with and without food. For fed animals, canned food (one can (374 g) of Lamb Ground Dinner with Chicken & Rice per dog was weighed then offered for a period of 30 min prior to dosing at 4 mg/kg. After dosing, dry food (25% protein) was offered. For fasted animals, dogs were fasted overnight and until 4 h post dose and then offered dry food. The results are given in Table 2.

[5] = Accumulation of norketotifen in skin after oral administration; format: in vivo; settings: read-out: Terminal half-life (t1/2e)
From the text: As used herein, the term biophase refers to the site(s) where a drug expresses its therapeutic activity. […] Thus, norketotifen can advantageously be used to treat dermal inflammatory and/or allergic diseases.

[6] = Phase 1 study, 8 mg/day for 7 days, plasma steady-state; format: in vivo, human; settings: 8 mg/day for 7 days Phase 1 study
atopic dermatitis [7] = assay: Phase 2a study of oral norketotifen in atopic dermatitis; format: in vivo, human
Method: The efficacy and safety of norketotifen orally administered to human subjects over a 28 day period were determined in a Phase 2 study. Norketotifen efficacy was compared to the clinical data in the prescribing information for Eucrisa® by dermal application; and compared to the clinical data in the prescribing information (product monograph) for Dupixent® by subcutaneous administration. In the Phase 2a study, 8 subjects were administered Placebo and 16 subjects were administered norketotifen. Oral norketotifen was administered at 4 mg BID (twice per day) for 4 days, followed by 4 mg QD (once per day). The duration of the study was 4 weeks. The parameters determined were: IGA score, Investigator's Global Assessment scale. The scale is as follows: • 0=clear—No inflammatory signs of atopic dermatitis (no erythema, no induration/papulation, no lichenification, no oozing/crusting). Post-inflammatory hyperpigmentation and/or hypopigmentation may be present. • 1=almost clear—Barely perceptible erythema, barely perceptible induration/papulation, and/or minimal lichenification. No oozing or crusting. • 2=mild—Slight but definite erythema (pink), slight but definite induration/papulation, and/or slight but definite lichenification. No oozing or crusting. • 3=moderate—Clearly perceptible erythema (dull red), clearly perceptible induration/papulation, and/or clearly perceptible lichenification. Oozing and crusting may be present. • 4=severe—Marked erythema (deep or bright red), marked induration/papulation, and/or marked lichenification. Disease is widespread in extent. Oozing or crusting may be present. In the IGA assessment, a responder was identified as a subject with IGA 0 or 1 (clear or almost clear) after treatment. A partial responder was defined as having an IGA score>1, but less than the initial score recorded on Day 1. A non-responder is a subject in which the initial IGA score was identical to the IGA score at the end of treatment (i.e. no change in score numbers). […] In Table 4, the results for norketotifen were compared to the results from the Dupixent® prescribing information.

[8] = PK parameters in plasma and skin of dogs after 28 days of oral dosing; format: in vivo; settings: for AUC(0-inf): N=5; for MRT / half-life: dog, po
From the text: However, for the treatment of the dermal and pulmonary disorders described herein for treatment efficacy, the dermal/pulmonary exposure are more important than systemic exposure, that is, efficacy depends on the skin/pulmonary AUC/Cmax, which are considered to be sites of action for these conditions. The pharmacokinetic parameters in skin and plasma after oral dosing of norketotifen to dogs (N=5) are shown below.

[9] = Incidence of vomiting in dogs administered norketotifen as a function of Cmax and AUC; format: in vivo; settings: FIGS. 1 and 2
[10] = Fast (fasted overnight until 4 h post dose)
[11] = oral 4 mg BID for 4 days, then 4 mg QD for 24 days, 4 weeks, 16 subjects

**Q.** For “Dupilumab: recombinant human IgG4 monoclonal antibody binding IL-4Rα, inhibits IL-4 and IL-13 signaling; subcutaneous injection”, which “IGA scores ≤1, percent responders” value (atopic dermatitis [1]; 300 mg Q2W subcutaneous) is on record?
**A.** The value was 37.9%.

**Q.** What about the “NRS ≥4 score improvement, percentage response for dupilumab group” value (atopic dermatitis [1]; pruritus NRS 0-10, 300 mg Q2W) of the same compound?
**A.** The value was 40.8%.

**Q.** Which results are given for `O=C1Cc2ccccc2C(=C2CCNCC2)c2ccsc21` (racemic) [norketotifen]?
**A.** Kp [2]: ~100; Margin of safety (animal: human), Systemic exposure (AUC0-inf.) ([3]; 2 mg): 127-fold; Margin of safety (animal: human), Systemic exposure (AUC0-inf.) ([3]; 4 mg): 72-fold; Margin of safety (animal: human), Systemic exposure (AUC0-inf.) ([3]; 16 mg): 19-fold; Margin of safety (animal: human), Systemic exposure (AUC0-inf.) ([3]; 32 mg): 6-fold; Margin of safety (animal: human), Systemic exposure (AUC0-inf.) ([3]; 64 mg): 3-fold; % difference in AUC0-∞, fed vs fasted (reduction in fed animals) [4]: 26%; AUC(0-inf) [4, 10]: 522 ng·h/mL; Cmax [4, 10]: 93 ng/mL; AUC(0-inf) ([4]; Fed): 390 ng·h/mL; Cmax ([4]; Fed): 58 ng/mL; half-life [5]: 144 to 168 h; Time to plasma steady-state [6]: ≤ 4 days; Safety/tolerability in the safety population (atopic dermatitis [7]; 28 days oral treatment, adverse event in only one patient, resolved completely): well-tolerated, with no reported instances of serious adverse events or treatment-related adverse events; Toxicity at Phase 2 doses (atopic dermatitis [7]; doses of 4 mg (maintenance) and 8 mg (loading)): no toxicity; Nausea or vomiting when dosed on a full stomach (atopic dermatitis [7]; human subjects, with food, up to a dose of 16 mg): no nausea or vomiting was noted; % reduction of affected BSA (Baseline to Day 29) (atopic dermatitis [7]; oral 4 mg BID for 4 days, then 4 mg QD for 24 days): −63.3%^; IGA scores >1, but less than the initial scores on Day 1 (partial responders) (atopic dermatitis [7]; [11]): 50%; Non responders at all (atopic dermatitis [7]; [11]): 6.1%; IGA scores ≤1, percent responders (atopic dermatitis [7]; oral 4 mg BID for 4 days, then 4 mg QD for 24 days, 4 weeks, 16 subjects, p = 0.0095 / 0.0031 vs Placebo (Fisher's exact test)): 43.89% ^b; Pruritus, score 0, percentage improvement for NK group (atopic dermatitis [7]; pruritus severity scale 0-3, 4 weeks, p = 0.016 vs Placebo): 62.5%^c; AUC(0-inf) ([8]; dog plasma, after 28 days of oral dosing): 4520 ng·h/mL; AUC(0-inf) ([8]; dog skin, after 28 days of oral dosing): 46100 ng·h/mL; MRT ([8]; plasma, dog plasma, after 28 days of oral dosing, read-out: MRT (mean residence time)): 17.5 h; half-life ([8]; plasma, dog plasma, after 28 days of oral dosing, read-out: t ½(e) (converted)): 38.3 h; MRT ([8]; skin, dog skin, Phase 2 = 14 day post dosing period, read-out: MRT (phase 2)): 159 h; half-life ([8]; skin, dog skin, Phase 2 = 14 day post dosing period, read-out: t ½(e) (phase 2) (converted)): 160 h; MRT ([8]; skin, dog skin, after 28 days of oral dosing, read-out: MRT (mean residence time)): 86.5 h; half-life ([8]; skin, dog skin, after 28 days of oral dosing, read-out: t ½(e) (converted)): 25.4 h; Incidence of vomiting vs systemic Cmax and AUC [9]: incidence of vomiting increases as both systemic Cmax and AUC increase

— patent publication US20250186421A1, “METHODS OF TREATING INFLAMMATORY AND/OR ALLERGIC DISORDERS WITH NORKETOTIFEN” (Bridge Pharma, Inc., priority 2025, published 2025)
